Here are results for one compound from paper PMC6934184, “Selective DNA-PKcs inhibition extends the therapeutic index of localized radiotherapy and chemotherapy” (The Journal of Clinical Investigation, 2019).

The target in this test is T1, GRK6 (Homo sapiens, UniProt P43250).
T1 construct: purchased Thermo Fisher Scientific (Life Technologies) SelectScreen
The experiment in a line: SelectScreen Z'LYTE. It counts as biochemical. In a few lines:
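NU5455 was profiled across the SelectScreen Broad panel of kinase activity and binding assays. Z'LYTE reactions such as CSF1R ran at apparent Km ATP, while the Adapta CAMK1 assay used ATP listed as 10. Values are given as percent.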

T1 sequence (P43250 whole entry): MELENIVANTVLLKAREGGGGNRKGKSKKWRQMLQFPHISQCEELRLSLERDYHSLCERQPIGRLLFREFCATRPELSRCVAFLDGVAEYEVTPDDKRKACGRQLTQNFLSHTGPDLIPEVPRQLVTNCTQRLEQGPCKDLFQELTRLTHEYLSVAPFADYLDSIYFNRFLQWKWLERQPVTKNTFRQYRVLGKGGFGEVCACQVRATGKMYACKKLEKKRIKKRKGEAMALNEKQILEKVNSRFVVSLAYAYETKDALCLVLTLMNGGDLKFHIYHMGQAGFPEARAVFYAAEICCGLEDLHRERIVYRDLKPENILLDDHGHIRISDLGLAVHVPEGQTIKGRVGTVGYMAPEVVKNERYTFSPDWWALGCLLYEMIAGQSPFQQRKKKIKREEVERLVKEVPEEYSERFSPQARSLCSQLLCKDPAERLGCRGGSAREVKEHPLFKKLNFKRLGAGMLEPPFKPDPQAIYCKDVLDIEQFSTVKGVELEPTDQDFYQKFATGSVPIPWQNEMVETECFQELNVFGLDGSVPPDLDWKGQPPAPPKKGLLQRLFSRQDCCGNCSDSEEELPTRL

`CN(C(=O)CN1CCOCC1)c1ccc2sc3c(-c4cccc5c(=O)cc(N6CC7CCC(C6)O7)oc45)cccc3c2c1` [NU5455] had an inhibition at 1 µM of 3.7%.
